Experimental data taken from PubChem BioAssay (NCI).
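A five-concentration, 48-hour dose response in 96-well plates underlies each endpoint, interpolated linearly between surrounding concentrations. GI50 marks 50% less growth. TGI denotes the concentration required for complete inhibition of growth.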

Assays:
Experiment in all cases: inhibition of tumour cell growth, NCI panel, 48 h
[1] = tested on: MCF7 breast
[2] = tested on: 786-0 renal
[3] = tested on: KM12 colon
[4] = tested on: SNB-19 CNS
[5] = tested on: RPMI-8226 leukemia
[6] = tested on: CAKI-1 renal
[7] = tested on: HCT-116 colon
[8] = tested on: M14 melanoma
[9] = tested on: COLO 205 colon
[10] = tested on: OVCAR-4 ovarian
[11] = tested on: HOP-62 NSCLC
[12] = tested on: T-47D breast
[13] = tested on: IGROV1 ovarian
[14] = tested on: EKVX NSCLC
[15] = tested on: NCI-H226 lung
[16] = tested on: OVCAR-5 ovarian
[17] = tested on: MOLT-4 leukemia
[18] = tested on: U251 CNS
[19] = tested on: OVCAR-3 ovarian
[20] = tested on: UO-31 renal
[21] = tested on: SK-OV-3 ovarian
[22] = tested on: NCI/ADR-RES ovarian
[23] = tested on: RXF 393 renal
[24] = tested on: ACHN renal
[25] = tested on: SW-620 colon
[26] = tested on: UACC-257 melanoma
[27] = tested on: K-562 leukemia
[28] = tested on: NCI-H23 lung
[29] = tested on: BT-549 breast
[30] = tested on: TK-10 renal

`COc1ccc(C(=O)Cn2c(C(=O)c3ccc(Cl)cc3)nc3ccccc32)cc1` showed a TGI [1] of over 100 µM, a GI50 [2] of 13.2 µM and a TGI [2] of over 27.3 µM. For the same molecule, the GI50 [3] was 4.18 µM, the TGI [3] was over 100 µM and the GI50 [4] was 46.5 µM. For the same molecule, the TGI [4] was over 100 µM, the GI50 [5] was 1.75 µM and the TGI [5] was over 77.8 µM. It also gave a GI50 [6] of over 100 µM, a TGI [6] of over 100 µM and a GI50 [7] of 2.56 µM. The TGI [7] was over 25 µM, the GI50 [8] was 3.69 µM and the TGI [8] was over 39.3 µM. It also gave a GI50 [9] of 37.5 µM, a TGI [9] of over 100 µM and a GI50 [10] of over 84.1 µM. The TGI [10] was over 100 µM, the TGI [11] was over 34.6 µM and the GI50 [12] was over 38.9 µM. The TGI [12] was over 100 µM, the GI50 [13] was 25.7 µM and the TGI [13] was over 100 µM. The GI50 [14] was over 42.9 µM, the TGI [14] was over 100 µM and the GI50 [15] was over 100 µM. The TGI [15] was over 100 µM, the GI50 [16] was over 66.3 µM and the TGI [16] was over 100 µM. The GI50 [17] was 3.83 µM, the TGI [17] was over 100 µM and the GI50 [18] was 19.4 µM. For the same molecule, the TGI [18] was over 100 µM, the GI50 [19] was over 20.3 µM and the TGI [19] was over 77.6 µM. The GI50 [20] was over 51.2 µM, the TGI [20] was over 100 µM and the GI50 [21] was 23.6 µM. It also gave a TGI [21] of over 100 µM, a GI50 [22] of 5.15 µM and a TGI [22] of over 37.4 µM. The GI50 [23] was 3.62 µM, the TGI [23] was 20.5 µM and the GI50 [24] was 22.9 µM. For the same molecule, the TGI [24] was over 100 µM, the GI50 [25] was 4.4 µM and the TGI [25] was over 100 µM. It also gave a GI50 [26] of over 100 µM, a TGI [26] of over 100 µM and a GI50 [27] of 3.33 µM. For the same molecule, the TGI [27] was over 100 µM, the GI50 [28] was over 57.9 µM and the TGI [28] was over 100 µM. For the same molecule, the GI50 [29] was over 38.7 µM, the TGI [29] was over 100 µM and the GI50 [30] was over 62.9 µM. It also gave a TGI [30] of over 100 µM.
